Three compounds from patent US7868135B2, “Compositions of lipopeptide antibiotic derivatives and methods of use thereof” (priority 2003, dated 2011) can be followed below.

By MIC is commonly meant the smallest concentration in the dilution series that meets the test's criterion for growth inhibition. For orientation: ED50 means the dose at which the effect has come halfway, by size or by number of responders.

The subject of assay [1] is Staphylococcus aureus (MSSA). Particulars: 24 h. Summed up: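 Broth microdilution MIC per NCCLS M7-A6 with doubling serial dilutions, in cation-adjusted Mueller-Hinton broth supplemented with 0.625 mM calcium.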
For assay [2], the system named is Streptococcus pneumoniae (SPN032, ATCC 1081). Put plainly: Intranasal murine lung infection model. Type of assay: in vivo. As to conditions: Swiss CD1 mice, i.n. S. pneumoniae, i.v. treatment at 3, 24 and 48 hours post-infection, deaths over ten days. The procedure:
(§1) Other exemplary in vivo models of infection that may be used to assess, for example, the efficacy of an antimicrobial lipopeptide of the instant disclosure include the following: (A) a mouse (murine) model of lung infection (pneumonia) wherein the bacterial infection is administered intranasally (i.n.); (B) a murine thigh muscle model wherein the bacterial infection is administered intramuscularly (i.m.) in normal or neutropenic (immunocompromised) mice; and (C) a combination murine thigh muscle model (i.m. infection)/lung (i.n.) infection.
Antimicrobial lipopeptide derivatives of the instant invention were tested for antimicrobial activity against Gram-positive bacteria in an intranasal (i.n.) murine lung infection model (i.e., bacteria were innoculated i.n. and lipopeptide compounds were administered i.v.). Streptococcus pneumoniae (SPN032, ATCC 1081) were grown on 5% sheep blood agar plates for 24 h at 37° C., harvested and then resuspended in 0.9% saline. A group of eight Swiss CD1 mice were sedated with 2% isoflurane, and each was infected i.n. dropwise to the nares with 50 μl of the prepared bacterial inoculum (i.e., a dose of about 10^6 CFU/mouse). […] The ED50 (mg/kg) for each compound was calculated using the method of Reed and Meunch (Am. J. Hyg. 27: 493, 1938).

Assay [3] relates to Staphylococcus aureus (SAU0017). Put plainly: Thigh infection model in neutropenic mice. It is filed as in vivo. As to conditions: neutropenic Swiss CD1 mice, i.m. S. aureus, i.v. treatment two hours post-infection, thigh CFU at 24 hours. On the procedure:
as §1

The test system of assay [4] is Streptococcus pneumoniae (SPN0002). Nature of the assay: Lung infection model in neutropenic mice. Type of assay: in vivo. The procedure: Antimicrobial lipopeptide derivatives of the instant invention were tested for antimicrobial activity against Gram-positive bacteria in an intranasal (i.n.), immunocomprimised murine lung infection model (i.e., bacteria were innoculated i.n. and lipopeptide compounds were administered i.v.). Streptococcus pneumoniae (SPN0002) were grown on 5% sheep blood agar plates for 24 h at 37° C., harvested and then resuspended in 0.9% saline. A group of three to four Swiss CD1 mice were rendered neutropenic by administration of cyclophosphamide (Sigma Chemical Co.; 150 mg/kg, i.p.) on day −4 and −1 before infection. At time −18 to −24 hours, each mouse was infected i.n. dropwise via the nares with 50 μl of the prepared bacterial inoculum (i.e., a dose of about 5×10^6 CFU/mouse). At 18 to 24 hours post-infection, the groups of mice received i.v. (1) a lipopeptide derivative formulated in a 5% D-mannitol solution at a dose of about 1 mg/kg, 3 mg/kg, 10 mg/kg, or 30 mg/kg; (2) the 5% mannitol vehicle alone at a dose volume of 10 mL/kg; or (3) a known antibiotic, such as ampicillin, at a similar dose as the lipopeptide compounds. At 18 to 24 hours post-antibiotic treatment, mice were sacrificed and lungs harvested. Lungs were sampled by spreading homogenates on blood agar plates and incubating for 24 h at 37° C., and then counting the number of CFU. The EKill (killing effect; i.e., log10 CFU/lung reduction as compared to CFU count at intial treatment time) and the EMax (maximum reduction effect; i.e., log10 CFU/lung reduction as compared to CFU count of control at 24 hours) for each compound was calculated.

Turning to `CCCCCCCCCCCCCCC(=O)NC(CC(=O)O)C(=O)NC1C(=O)N2CCCCC2C(=O)NC(C(C)C(=O)O)C(=O)NC(CC(=O)O)C(=O)NCC(=O)NC(CC(=O)O)C(=O)NCC(=O)NC(C(C)NC(=O)CN(C)C(=O)[C@@H](N)CCCCN)C(=O)NC(C(C)C)C(=O)N2CCCC2C(=O)NC1C` (some centres unmarked) [Compound 199, C15-Amphomycin-9-Sar-Lys], in assay [1], the MIC lay within 0.5 to 1 µg/mL.

Take `CCCCCCCCCCCCCCC(=O)NC(CC(=O)O)C(=O)NC1C(=O)N2CCCCC2C(=O)NC(C(C)C(=O)O)C(=O)NC(CC(=O)O)C(=O)NCC(=O)NC(CC(=O)O)C(=O)NCC(=O)NC(C(C)NC(=O)CNC(=O)[C@@H](N)CCCCN)C(=O)NC(C(C)C)C(=O)N2CCCC2C(=O)NC1C` (some centres unmarked) [Compound 4, C15-Amphomycin-9-Gly-Lys]: the ED50 in assay [2] is 1.3 mg/kg.

As for `CCCCCCCCCCCCCCC(=O)NC(CC(=O)O)C(=O)NC1C(=O)N2CCCCC2C(=O)NC(C(C)C(=O)O)C(=O)NC(CC(=O)O)C(=O)NCC(=O)NC(CC(=O)O)C(=O)NCC(=O)NC(C(C)NC(=O)CCN)C(=O)NC(C(C)C)C(=O)N2CCCC2C(=O)NC1C` (stereo not drawn) [Compound 147, C15-Amphomycin-9-(β-Ala)], the median effective dose (ED50) in assay [3] is 1.1 to 1.8 mg/kg. For the same compound, the “EKill (log10 CFU/lung reduction versus count at initial treatment time)” value in assay [4] (30 mg/kg i.v.) was 3.2 log10 CFU/lung. The “log10 CFU/lung reduction (EMax, versus control at 24 hours)” value in assay [4] (highest dose level 30 mg/kg i.v.) was 4.0 log10 CFU/lung.
